Measurements taken from patent US6376666B1 (Nauchno-Issledovatelsky Institut Farmakologii Rossiiskoi …, priority 1994, dated 2002).
Marks after values point to notes of the source that are not given here.

Tests used:
cats = experiment: hemodynamics and activity of intact heart in cats under anesthesia; assay type: in vivo; settings: for Cardiac volume, change from basal level / Heart rate, change from basal level / Mean blood flow accelaration (aortic), change from basal level / Mean blood pressure, change from basal level / Stroke volume, change from basal level: cats
Experimental: The effects of compounds on the hemodynamics and activity of intact heart were studied in cats under anesthesia. The experiments were carried out under conditions of open chest. The phase curve of aortic blood flow was the main index of cardiac activity. The compounds were administered i.v. in physiological solution. The t-Student' test was used to estimate the statistical significance.

[1] = test system: ventricular fibrillations; experiment: ventricular fibrillation, 7-min occlusion and reperfusion of coronary artery in anesthetized rats; assay type: in vivo
Experimental: The experiments were conducted in male rats weighing 180-240 g and anesthetized with nembutal (60 mg/kg i.v.) with open chest and artificial respiration. The occlusion of the left coronary artery was performed 1-2 min after experiment beginning with following reperfusion after 7 min. During this period time according to literature data [Krzeminski T., Grzyb J., Kurcok A., Brus R.: Pol.J.Pharmacol., 1992, 44, Suppl., p.169-170] the maximum number of ventricular fibrillations (70-100%) were registered. The ECG in the 2nd standard lead was recorded in “Mingograph-81”. The number of ventricular fibrillations during occlusion and reperfusion periods, the life menacing arrhythmia (fibrillation+paroxysmal ventricular tachycardia) and total number of arrhythmias were calculated. The known antiarrhythmic drug bonnecor was used as the reference agent [Grigorieva E. K., Gorbunova V. V. in: “New antiarrhythmic drug—bonnecor (the pharmacology and clinical usage)”, M., 1993, p.64-67]. The compounds were injected i.v. at the following doses: bonnecor—1,0 mg/kg, compound IX—2,0 mg/kg, compound XX—1,0 mg/kg. The control animals were administered with the equivalent volume of physiological solution (1,0 ml/kg). 4 series of experiments were carried out in 80 rats. The results were assessed according to the method of point scale: the absence of arrhythmia—0 point, extrasystole—1 point, paroxysmal ventricular tachycardia—2 points, ventricular fibrillation—3 points, fibrillation observed during the occlusion of coronary vessel—4 points. For statistical analysis the Fisher's exact probability and Wilconson's methods were used.
[Krzeminski T., Grzyb J., Kurcok A., Brus R.: Pol.J.Pharmacol., 1992, 44, Suppl., p.169-170] have shown that 7 min occlusion with following reperfusion of coronary artery in anesthetized rats produced the ventricular fibrillation (68-100%). Defibrotide and prostacycline decreased the number of fibrillations. We have studied the antifibrillator activity of some derivatives of 2-mercaptbenzimidazole in this model with disturbances of heart rhythm. Bonnecor (1,0 mg/kg) was used as the reference drug. It is well known that this agent produces apronouncedantifibrillatoryactivity [Grigorieva E. K., Gorbunova V. V. in: “New antiarrhythmic drug-bonnecor (the pharmacology and clinical usage)”, M., 1993, p.64-67].

adrenaline arrhythmia = adrenaline arrhythmia in concious rabbits; settings: given 2 min before arrhythmogenic dose of adrenaline
Experimental: Adrenaline arrhythmia. The 0,1% solution of adrenaline hydrochloride was injected to the marginal ear's vein of rabbit weighing 2,5-3,0 kg at dose ranging 120-150 mcg/kg which induced cardiac rhythm disturbances of two types.
The tested compound was injected in 3 ml of distilled water 30 min after determination of arrhythmogenic dose of adrenaline and the ECG was recorded in 2nd standard lead. 2 min after administration of tested compound the arrhythmogenic dose of adrenaline was injected.

aconitine arrhythmia = experiment: animal or person; assay type: in vivo, rats
Experimental: Aconitine arrhythmia. The aconitine arrhythmia was induced in concious rats weighing 180-200 g by the injection in tail vein of the aconitine sulfate solution at dose range of […]. […] The tested compounds were administered i.v. 3 min prior aconitine injection. The ED50 value was calculated according to Litchfield's method.

[2] = 0.5 mg/kg i.v., after injection
[3] = 1.0 mg/kg i.v., after injection

CCOc1ccc2nc(SCCN(CC)CC)[nH]c2c1 [Compound IX, 2-[2-(Diethylamino)ethylthio]-5-ethoxybenz-imidazole]
effect on contractile function of heart, in words (cats; cats i.v., same doses as bradycardia): slightly enhanced the contractility of myocardium | duration of bradycardia after administration (cats; cats i.v., VIII 1,0, IX 0,5 and 1,0, XX 1,0 and 2,0 mg/kg): 30 min | effect on heart rate, in words (cats; cats i.v., VIII 1,0, IX 0,5 and 1,0, XX 1,0 and 2,0 mg/kg, XXIII 1.0, verapamil 0.5 mg/kg): expressed bradycardia | Cardiac volume, change from basal level (cats; 0.5 mg/kg i.v., after 2 min): −3.5 ± 6.0% | Heart rate, change from basal level (cats; 0.5 mg/kg i.v., after 2 min): −11.6 ± 2.8 % | Mean blood flow accelaration (aortic), change from basal level (cats; 0.5 mg/kg i.v., after 2 min): +11.0 ± 8.8% | Mean blood pressure, change from basal level (cats; 0.5 mg/kg i.v., after 2 min): +4.4 ± 4.7% | Stroke volume, change from basal level (cats; 0.5 mg/kg i.v., after 2 min): +9.4 ± 6.5% | Cardiac volume, change from basal level (cats; 0.5 mg/kg i.v., after 5 min): −1.7 ± 4.8% | Mean blood flow accelaration (aortic), change from basal level (cats; 0.5 mg/kg i.v., after 5 min): +0.6 ± 4.9% | Mean blood pressure, change from basal level (cats; 0.5 mg/kg i.v., after 5 min): −5.4 ± 2.3% | Stroke volume, change from basal level (cats; 0.5 mg/kg i.v., after 5 min): +5.6 ± 5.6% | Cardiac volume, change from basal level (cats; 0.5 mg/kg i.v., after 10 min): −4.2± 2.1% | Heart rate, change from basal level (cats; 0.5 mg/kg i.v., after 10 min): −7.3 ± 1.6 % | Mean blood flow accelaration (aortic), change from basal level (cats; 0.5 mg/kg i.v., after 10 min): +3.0 ± 4.0% | Mean blood pressure, change from basal level (cats; 0.5 mg/kg i.v., after 10 min): −1.2 ± 3.6% | Stroke volume, change from basal level (cats; 0.5 mg/kg i.v., after 10 min): +3.6 ± 3.0% | Cardiac volume, change from basal level (cats; 0.5 mg/kg i.v., after 20 min): −6.1 ± 3.4% | Heart rate, change from basal level (cats; 0.5 mg/kg i.v., after 20 min): −4.5 ± 2.2% | Mean blood flow accelaration (aortic), change from basal level (cats; 0.5 mg/kg i.v., after 20 min): +5.6 ± 5.1% | Mean blood pressure, change from basal level (cats; 0.5 mg/kg i.v., after 20 min): −4.1 ± 4.8% | Stroke volume, change from basal level (cats; 0.5 mg/kg i.v., after 20 min): −0.7 ± 4.0% | Cardiac volume, change from basal level (cats; 0.5 mg/kg i.v., after 30 min): −2.8 ± 7.8% | Heart rate, change from basal level (cats; 0.5 mg/kg i.v., after 30 min): −5.3 ± 2.3% | Mean blood flow accelaration (aortic), change from basal level (cats; 0.5 mg/kg i.v., after 30 min): +1.8 ± 5.8% | Mean blood pressure, change from basal level (cats; 0.5 mg/kg i.v., after 30 min): −4.9 ± 6.5% | Stroke volume, change from basal level (cats; 0.5 mg/kg i.v., after 30 min): +1.8 ± 9.3% | Cardiac volume, change from basal level (cats; [2]): +6.5 ± 2.8% | Heart rate, change from basal level (cats; [2]): −8.0 ± 3.5% | Mean blood flow accelaration (aortic), change from basal level (cats; [2]): +8.8 ± 5.8% | Mean blood pressure, change from basal level (cats; [2]): −2.1 ± 3.0% | Stroke volume, change from basal level (cats; [2]): +17.0 ± 5.5 % | Cardiac volume, change from basal level (cats; 1.0 mg/kg i.v., after 2 min): +2.2 ± 3.5% | Heart rate, change from basal level (cats; 1.0 mg/kg i.v., after 2 min): −14.1 ± 2.1 % | Mean blood flow accelaration (aortic), change from basal level (cats; 1.0 mg/kg i.v., after 2 min): ± 8.6 +3.8% | Mean blood pressure, change from basal level (cats; 1.0 mg/kg i.v., after 2 min): +0.6 ± 2.7% | Stroke volume, change from basal level (cats; 1.0 mg/kg i.v., after 2 min): +19.3 ± 4.6 % | Cardiac volume, change from basal level (cats; 1.0 mg/kg i.v., after 5 min): +1.7 ± 6.8% | Heart rate, change from basal level (cats; 1.0 mg/kg i.v., after 5 min): −10.6 ± 1.5 % | Mean blood flow accelaration (aortic), change from basal level (cats; 1.0 mg/kg i.v., after 5 min): +13.6 ± 5.7% | Mean blood pressure, change from basal level (cats; 1.0 mg/kg i.v., after 5 min): −3.8 ± 3.4% | Stroke volume, change from basal level (cats; 1.0 mg/kg i.v., after 5 min): +13.8 ± 7.8% | Cardiac volume, change from basal level (cats; 1.0 mg/kg i.v., after 10 min): −1.3 ± 6.8% | Heart rate, change from basal level (cats; 1.0 mg/kg i.v., after 10 min): −7.1 ± 1.0 % | Mean blood flow accelaration (aortic), change from basal level (cats; 1.0 mg/kg i.v., after 10 min): +9.6 ± 3.9 % | Mean blood pressure, change from basal level (cats; 1.0 mg/kg i.v., after 10 min): −6.8 ± 2.5 % | Stroke volume, change from basal level (cats; 1.0 mg/kg i.v., after 10 min): +5.9 ± 6.3% | Cardiac volume, change from basal level (cats; 1.0 mg/kg i.v., after 20 min): −0.2 ± 3.8% | Heart rate, change from basal level (cats; 1.0 mg/kg i.v., after 20 min): −4.2 ± 1.9% | Mean blood flow accelaration (aortic), change from basal level (cats; 1.0 mg/kg i.v., after 20 min): +13.1 ± 5.0 % | Mean blood pressure, change from basal level (cats; 1.0 mg/kg i.v., after 20 min): −1.9 ± 2.9% | Stroke volume, change from basal level (cats; 1.0 mg/kg i.v., after 20 min): +4.4 ± 4.5% | Cardiac volume, change from basal level (cats; 1.0 mg/kg i.v., after 30 min): −2.5 ± 5.1% | Heart rate, change from basal level (cats; 1.0 mg/kg i.v., after 30 min): −2.3 ± 3.5% | Mean blood flow accelaration (aortic), change from basal level (cats; 1.0 mg/kg i.v., after 30 min): +3.9 ± 2.0% | Mean blood pressure, change from basal level (cats; 1.0 mg/kg i.v., after 30 min): −2.7 ± 2.9% | Stroke volume, change from basal level (cats; 1.0 mg/kg i.v., after 30 min): +0.7 ± 6.7% | Cardiac volume, change from basal level (cats; [3]): +17.6 ± 8.2% | Heart rate, change from basal level (cats; [3]): −15.4 ± 2.7 % | Mean blood flow accelaration (aortic), change from basal level (cats; [3]): +14.8 ± 8.8% | Mean blood pressure, change from basal level (cats; [3]): −1.6 ± 7.3% | Stroke volume, change from basal level (cats; [3]): +34.21 ± 0.6 % | antifibrillatory effect, in words ([1]; anesthetized rats i.v., bonnecor 1,0, IX 2,0, X (printed) 1,0 mg/kg): reduced the number of both the ventricular fibrillations and lethality hazardous arrhythmia | Number of VF (ventricular fibrillations) ([1]; anesthetized rats, 2 mg/kg i.v., 20 animals, control 15 of 24): 4* | Number of LHA (lethality hazardous arrhythmia) ([1]; anesthetized rats, 2 mg/kg i.v., 20 animals, control 22 of 24): 12* | Total numbers of arrhyt. ([1]; anesthetized rats, 2 mg/kg i.v., 20 animals, control 24 of 24): 17^ | Severity of arrhythmias ([1]; anesthetized rats, 2 mg/kg i.v., 20 animals, control 66): 32** points | Adrenaline arrhythmia. Range of active doses (adrenaline arrhythmia): 0.3 to 0.7 mg/kg | LD50/ED50 (antiarrhythmic index) (aconitine arrhythmia; LD50 i.v. / ED50 aconitine arrhythmia): 26,2 | ED50 (aconitine arrhythmia; Rattus norvegicus, iv, read-out: Aconitine arrhythmia ED50): 1.2 mg/kg | activity relative to lidocaine, aconitine arrhythmia (aconitine arrhythmia; rats, higher than lidocaine): 6,5 folds | activity relative to quinidine, aconitine arrhythmia (aconitine arrhythmia; rats, higher than quinidine): 4,4 folds
